Where “and” joins values, the source holds several entries; their conditions need not be identical. Identical values can stand only once.
Key:
corn [1] = assay: Boron absorption into corn leaf after foliar application, growth stage V5 (Example 4)
Description: Each solution was applied independently of one another at these rates, and the applications emulated commercial application conditions, with 30-inch spacings. The test solutions were applied to three different fields to allow for data replication. The corn was at growth stage V5 during the test. Each test solution was evenly applied using a portable foliar applicator ([…] M18 sprayer with a four-gallon tank). Application time per row was recorded to allow for the calculation of an average application rate of the applicator. Any remaining application solution was weighed to allow for the exact calculation of applied solution per acre (converted below to ounces per acre). The solution application rates are reported below in Table 11 and boron application rates are reported below in Table 12. Applications were done in the heat of the day (96° F.), with minimal wind to preclude drift. Control strips for each product at both application rates were identified, and tissue samples from the control strips were collected to reflect an application rate of 0.00 ounces of product per 68 ounces of water.
Tissues were collected after two days using standard tissue collection procedures. Twelve top collar leaves were collected per row. The leaf samples were placed in paper bags and sent to a commercial lab for leaf mineral analysis using ICP-AA.
The application rates reported above Table 11 were adjusted by the concentration of the applied product so that the data could be compared on an equivalent basis, which are reported in Table 12. Tissue boron was regressed against the adjusted applied rates using the Fit Y×X model of SAS JMP (v. 15.0). The Experimental Unit was Field.
Five chemical compounds containing boron were evaluated. The slope of the line was defined according to the following equation: […]

corn [2] = assay: Boron absorption into corn leaf after foliar application, growth stage V7 (Example 5); assay type: in vivo; conditions: leaves collected after two days
Description: The same procedure of Example 4 was followed for this Example, and the same application solutions at rate 2 were used and applied to three separate fields of corn at growth stage V7.
Twelve top collar leaves were collected per row.
Tissue boron data were analyzed using the Fit Y×X module of SAS JMP (v. 15.0). The tissue data were compared using the Oneway Analysis option. Means for boric acid and boron lysinate were separated using the Student's t-test.

[3] = corn V5, foliar application, top collar leaves collected after two days, slope of tissue boron vs applied boron

Compound | B Absorption, ppm/oz applied B (corn [1]; corn, in vivo, 2 days) [ppm/oz applied B] | increase of corn tissue boron for every ounce of boron applied (corn [1]; corn, in vivo, 2 days) [ppm] | boron absorption greater than boric acid (corn [1]; corn V5, Example 4) | increase of corn tissue boron for every ounce of boron applied (corn [1]; corn V5, Example 4, per ounce applied boron) [ppm] | B Absorption, ppm/oz applied B (corn [1]; [3]) [ppm/oz applied B] | Boron Absorption, ppm/oz B (corn [2]) | Boron Absorption, ppm/oz B (corn [2]; listed as boron lysinate) [ppm/oz B] | decrease of boron absorbed into leaf tissue compared to boric acid (corn [1]; corn V5, Example 4) [ppm]
OB(O)O [Boric acid, boric acid, reference compound] | 4.58 | 4.58 | – | – | – | – | – | –
boron lysinate | – | – | 3.92 ppm and 3.08 ppm | 7.66 | 7.66 | 13.13 ppm/oz B and 13.13^b ppm/oz B | 13.13 | –
ethanolamine boron [Boron ethanolamine, reference compound] | – | – | – | – | 4.13 | – | – | 0.45

From US20260193149A1, “[…] USEFUL MINERAL AMINO ACID COMPLEXES” (Statera Ag, LLC, priority 2022, published 2026)
